Reference: ChEMBL document CHEMBL1122446

Legend:
[1] = biological target: T1, Dihydrofolate reductase (Homo sapiens) (UniProt P00374)
T1 sequence (whole entry): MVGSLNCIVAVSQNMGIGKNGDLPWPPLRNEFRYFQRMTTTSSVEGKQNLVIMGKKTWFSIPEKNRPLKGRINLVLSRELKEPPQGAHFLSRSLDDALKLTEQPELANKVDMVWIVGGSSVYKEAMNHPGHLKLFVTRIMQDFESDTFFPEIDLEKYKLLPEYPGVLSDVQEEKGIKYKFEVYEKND

[2] = biological target: T2, Dihydrofolate reductase (Gallus gallus) (UniProt P00378)
T2 sequence (whole entry): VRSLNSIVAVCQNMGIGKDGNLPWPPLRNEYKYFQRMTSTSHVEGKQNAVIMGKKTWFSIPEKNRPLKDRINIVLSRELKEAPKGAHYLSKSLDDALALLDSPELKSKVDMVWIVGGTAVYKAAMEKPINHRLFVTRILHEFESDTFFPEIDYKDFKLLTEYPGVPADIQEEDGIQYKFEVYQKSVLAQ

[3] = biological target: Dihydrofolate reductase (Lactobacillus casei) (UniProt P00381); details: Lacticaseibacillus casei
Sequence of Dihydrofolate reductase (Lactobacillus casei) (P00381 whole entry): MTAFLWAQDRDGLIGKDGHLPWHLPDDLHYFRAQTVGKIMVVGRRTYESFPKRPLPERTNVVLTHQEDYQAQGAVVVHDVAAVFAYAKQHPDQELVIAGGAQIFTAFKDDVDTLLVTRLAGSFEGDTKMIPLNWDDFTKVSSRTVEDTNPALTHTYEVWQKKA

| I / E100 [1] | I / E100 [2] | I / E100 [3] | Structure (SMILES) |
| --- | --- | --- | --- |
| 2.9 | 3.5 | 1.9 | CN(C)c1cccc2c(S(=O)(=O)NCCCCC(NC(=O)c3ccc(N(C)Cc4cnc5nc(N)nc(N)c5n4)cc3)C(=O)O)cccc12 (stereo unspecified) |
| 1 | 1.4 | 1 | CN(Cc1cnc2nc(N)nc(N)c2n1)c1ccc(C(=O)NC(CCCCN)C(=O)O)cc1 (stereo unspecified) |
